Data: publication PMC12007089, “Applying Isothermal Titration Calorimetry and Saturation Transfer Difference-NMR to Study the Mode of Interaction of Flavan-3-ols with α-Amylase to Understand Their Impact on Starch Hydrolysis” (Journal of Agricultural and Food Chemistry, 2025)
Read-outs that look alike come from different tables or passages of the source.

Assays:
[1] = biological target: T1, porcine pancreatic α-amylase (Sus scrofa, UniProt P00690); test: Continuous α-amylase activity assay (starch hydrolysis) by ITC; format: biochemical; conditions: for IC50: calculated according to the Cheng–Prussoff equation (eq 8) for a 1 M substrate
T1 sequence (P00690 16-511): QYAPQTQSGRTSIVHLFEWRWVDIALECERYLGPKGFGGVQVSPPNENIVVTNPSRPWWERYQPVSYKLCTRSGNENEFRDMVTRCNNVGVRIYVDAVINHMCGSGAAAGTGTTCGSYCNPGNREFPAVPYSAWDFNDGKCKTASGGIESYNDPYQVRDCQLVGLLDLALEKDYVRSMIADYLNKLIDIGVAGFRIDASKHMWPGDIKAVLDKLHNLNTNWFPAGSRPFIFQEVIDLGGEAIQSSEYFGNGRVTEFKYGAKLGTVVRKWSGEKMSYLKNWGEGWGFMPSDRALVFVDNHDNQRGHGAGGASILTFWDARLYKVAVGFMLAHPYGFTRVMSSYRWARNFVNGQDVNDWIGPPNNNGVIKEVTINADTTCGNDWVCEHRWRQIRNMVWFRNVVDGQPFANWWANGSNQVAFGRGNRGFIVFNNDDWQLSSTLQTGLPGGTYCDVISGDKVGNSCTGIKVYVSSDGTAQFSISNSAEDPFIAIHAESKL
Procedure: Without rebuffering, α-amylase was diluted each day with 0.1 M phosphate buffer/0.04 M NaCl to a final dilution of 1:1000 and stored at 4 °C. […] The starch solution was prepared daily, according to the protocol recommended by Brodkorb et al. with some modifications.[37],[38]
The starch suspension in 0.1 M phosphate buffer/0.04 M NaCl was heated for 5 min under vigorous stirring. After cooling to room temperature, the solution was diluted to a final mass concentration of 40.5 g/L (equivalent to 250 mM based on the molecular weight of the glucose monomers). The concentration of starch is typically expressed as a percentage by weight (%, w/v) due to the inherent polydispersity of the molecule, which is influenced by the source of the natural starch, the manufacturing process, and the preparation of the sample.[28],[39] However, the calculation of inhibition constants requires the use of molarities.
Control experiments were performed with 12 nM α-amylase in 0.1 M phosphate buffer/0.04 M NaCl placed in the sample cell at 310 K, and various volumes (1–10 μL) of starch solution were recurrently injected up to three times with an injection interval of 1600 s. It was elucidated that the optimal volume for reaching the maximal turnover velocity (vmax) was 5 μL. Prior to measurement, α-amylase was incubated with the flavan-3-ols for 60 min at 277 K to ensure that adsorption equilibrium has been reached. This was compulsory as the time required for the ITC system to reach equilibrium and to start measurement varied considerably (10–25 min). To confirm α-amylase stability, controls without an inhibitor were performed at the beginning and the end of each day.
The release of heat during the conversion of starch was monitored, and calculations were performed using Microsoft Excel software. The detected thermal power is directly proportional to the enzymatic rate (v0) (eq 1 and 2).[40],[41] [drawing 1] 1 [drawing 2] 2
The heat rate (dQ/dt) is obtained as a function of time (t) and provides information about the conversion rate (ν). The reaction enthalpy (ΔRHapp) is calculated by integrating the heat peak over its entire extent and dividing the result by the number of substrate molecules converted by the enzyme (eq 3). The substrate concentration at time t ([S]t) is calculated according to eq 4. [drawing 3] 3 [drawing 4] 4
The Michaelis–Menten constant (Km) is defined as the substrate concentration at the time (t0.5) when the reaction rate reaches half-maximum (vmax) (eq 5). [drawing 5] 5
Thus, the thermogram provides all information to calculate inhibition constants. While competitive inhibition (Kic, eq 6) is based on the formation of an enzyme–inhibitor complex (EI), the uncompetitive inhibition (Kiu, eq 7) refers to the binding of a ternary enzyme–substrate–inhibitor complex (ESI). [drawing 6] 6 [drawing 7] 7
The maximal conversion rate vmax and the Michaelis–Menten constant Km are calculated from the control experiments in the absence of an inhibitor. In the presence of an inhibitor [I], the apparent values of [drawing 8] and [drawing 9] have been determined.
The inhibitor concentration that is required to reduce the conversion rate to 50% (IC50) depends on the substrate concentration [S] and is calculated according to the Cheng–Prussoff equation (eq 8).[42] [drawing 10] 8

[2] = biological target: T1, porcine pancreatic α-amylase; test: Interaction studies by isothermal titration calorimetry (ITC); format: binding
Procedure: Isothermal titration calorimetry was performed using an Affinity ITC LV with a cell volume of 182 μL (TA Instruments, Eschborn, Germany). Interaction experiments were recorded at 298 K with 0.1 mM rebuffered α-amylase in the sample cell and 4 mM flavan-3-ols in the injection syringe. For each ligand, experiments were performed with 25 injections of 3 μL and a spacing of 200 s between injections. Experiments were carried out in duplicates. Additional measurements were conducted in buffer to ensure that any mixing effects were negligible and that the observed heat development was solely attributed to the interaction studied (S4). In particular, at higher phenolic concentrations, endothermic peaks were observed, arising from the dilution effect.
The data analysis for the interaction studies was conducted using software NanoAnalyze, with manual integration of the peaks. To correct the data for noninteraction-related heats, the mean heat released during the final three injections was subtracted as a constant blank. This procedure is an effective estimation strategy that minimizes errors during the fitting process, provided that the protein is fully saturated.[35] The data were fitted using the “independent” model. To prevent overparametrization, n was set to 1, while Ka and ΔH were maintained as variables, as recommended for low-affinity binding.[35],[36] The stability of the ligand at room temperature was ensured by monitoring the concentrations prior to and following the experiment (S5).

[3] = 100 μM flavan-3-ol, 310 K, initial injection, control 727 ± 103
[4] = 100 µM flavan-3-ol, inj. 2, read-out: Kic
[5] = 100 µM flavan-3-ol, inj. 2, read-out: Kiu
[6] = 100 µM flavan-3-ol, inj. 3, read-out: Kic
[7] = 100 µM flavan-3-ol, inj. 3, read-out: Kiu
[8] = competitive inhibition constant, 100 μM flavan-3-ol, 310 K, initial injection (inj. 1), read-out: Kic
[9] = relative to control, 100 μM flavan-3-ol, 12 nM α-amylase, starch, 310 K, initial injection (inj. 1)
[10] = relative to control, 100 μM flavan-3-ol, 310 K, initial injection
[11] = uncompetitive inhibition constant, 100 μM flavan-3-ol, 310 K, initial injection (inj. 1), read-out: Kiu
[12] = 0.1 mM α-amylase, 4 mM flavan-3-ol, phosphate buffer, 298 K, n set to 1
[13] = 0.1 mM α-amylase, 4 mM flavan-3-ol, phosphate buffer, 298 K, n set to 1, read-out: Kd
[14] = phosphate buffer, 298 K, n set to 1
[15] = ITC, values as restated in the discussion
[16] = PC C1 concentrations of ∼105 μM, 310 K

| α(Kic/Kiu) ([1]; 100 μM flavan-3-ol, 310 K) | ΔRHapp [1, 3] | vmax ([1]; 100 µM flavan-3-ol, inj. 2) | Ki [1, 4] | Ki [1, 5] | vmax ([1]; 100 µM flavan-3-ol, inj. 3) | Ki [1, 6] | Ki [1, 7] | Ki [1, 8] | vmax [1, 9] | (dQ/dt)max [1, 10] | Ka [2, 12] | Kd [2, 13] | ΔG [2, 14] | ΔH [2, 14] | ΔS [2, 14] | Ka [2, 15] | Structure (SMILES) | IC50 [1] | Ki [1, 11] | further results |
| --- | --- | --- | --- | --- | --- | --- | --- | --- | --- | --- | --- | --- | --- | --- | --- | --- | --- | --- | --- | --- |
| 0.8 ± 0.4 | 0.162 ± 0.0335 kcal/mol | 78±5% | 447 ± 151 µM | 403 ± 134 µM | 79±2% | 458 ± 152 µM | 399 ± 54 µM | 356 ± 209 µM | 79 ± 6% | 80 ± 13% | 2.1±0.0 10^3 M^-1 | 500 µM | -4.54 ± 0 kcal/mol | -12.7 ± 1.1 kcal/mol | – | – | Oc1cc(O)c2c(c1)O[C@H](c1ccc(O)c(O)c1)[C@@H](O)C2 [CAT, (+)-Catechin] | 431 ± 217 µM | 431 ± 217 µM | – |
| 0.7 ± 0.2 | 0.156 ± 0.0229 kcal/mol | 65±8% | 216 ± 65 µM | 208 ± 78 µM | 70±1% | 539 ± 86 µM | 240 ± 14 µM | 155 ± 79 µM | 66 ± 9% | 66 ± 14% | 1.1±0.1 10^3 M^-1 | 900 µM | -4.06 ± 0.024 kcal/mol | -5.26 ± 0.359 kcal/mol | -16±5 J/mol·K | 1100 M^–1 | Oc1cc(O)c2c(c1)O[C@H](c1ccc(O)c(O)c1)[C@H](O)[C@H]2c1c(O)cc(O)c2c1O[C@H](c1ccc(O)c(O)c1)[C@@H](O)C2 [PC B1, procyanidin B1] | – | – | – |
| 1.0 ± 0.1 | 0.205 ± 0.00789 kcal/mol | 62±6% | 188 ± 34 µM | 195 ± 57 µM | 61±7% | 202 ± 73 µM | 165 ± 49 µM | – | 62 ± 4% | 56 ± 4% | 0.9±0.1 10^3 M^-1 | 1100 ± 100 µM | -4.06 ± 0.048 kcal/mol | -1.9 ± 0.096 kcal/mol | 31±1 J/mol·K | 900 M^–1 | Oc1cc(O)c2c(c1)O[C@H](c1ccc(O)c(O)c1)[C@H](O)[C@H]2c1c(O)cc(O)c2c1O[C@H](c1ccc(O)c(O)c1)[C@H](O)C2 [PC B2, procyanidin B2] | – | – | – |

More lines, now with the values behind:

| Structure (SMILES) | α(Kic/Kiu) ([1]; 100 μM flavan-3-ol, 310 K) | ΔRHapp [1, 3] | vmax ([1]; 100 µM flavan-3-ol, inj. 2) | Ki [1, 4] | Ki [1, 5] | vmax ([1]; 100 µM flavan-3-ol, inj. 3) | Ki [1, 6] | Ki [1, 7] | Ki [1, 8] | vmax [1, 9] | (dQ/dt)max [1, 10] | Ka [2, 12] | Kd [2, 13] | ΔG [2, 14] | ΔH [2, 14] | ΔS [2, 14] | Ka [2, 15] | IC50 [1] | Ki [1, 11] | further results |
| --- | --- | --- | --- | --- | --- | --- | --- | --- | --- | --- | --- | --- | --- | --- | --- | --- | --- | --- | --- | --- |
| Oc1cc(O)c2c(c1)O[C@H](c1ccc(O)c(O)c1)[C@H](O)C2 [EC, (−)-Epicatechin] | 0.7 ± 0.1 | 0.195 ± 0.0127 kcal/mol | 77±5% | 305 ± 162 µM | 389 ± 41 µM | 76±3% | 291 ± 80 µM | 330 ± 52 µM | – | 78 ± 4% | 82 ± 8% | – | 300 µM | -4.78 ± 0.048 kcal/mol | -17.2 ± 1.67 kcal/mol | -173±24 J/mol·K | – | – | – | Kd ([2]; Ka, 0.1 mM α-amylase, 4 mM flavan-3-ol, phosphate buffer, 298 K, n set to 1): 263 µM |
| Oc1cc(O)c2c(c1)O[C@H](c1ccc(O)c(O)c1)[C@H](O)[C@H]2c1c(O)cc(O)c2c1O[C@H](c1ccc(O)c(O)c1)[C@H](O)[C@H]2c1c(O)cc(O)c2c1O[C@H](c1ccc(O)c(O)c1)[C@H](O)C2 [PC C1, procyanidin C1] | 0.9 ± 0.1 | 0.143 ± 0.00789 kcal/mol | 50±5% | 143 ± 56 µM | 102 ± 19 µM | 59±2% | 395 ± 78 µM | 145 ± 14 µM | – | 50 ± 4% | 44 ± 4% | – | – | – | – | – | – | 103 ± 16 µM | 103 ± 16 µM | reduction in α-amylase activity ([1]; 100 μM PC C1): 50%; (dQ/dt)max [1, 16]: 23 ± 0%; ΔRHapp [1, 16]: 0.0406 ± 0.01 kcal/mol; vmax ([1]; PC C1 concentrations of ∼105 μM, 310 K, value printed in brackets): (98 ± 21) %; interaction with α-amylase observed by ITC ([2]; 0.1 mM α-amylase, 4 mM ligand, 298 K): no observable interaction |
